One data set in a line: in vivo. The note with it: Sprague-Dawley, rat, plasma, iv, 30 mg/kg.
The test system of data set [1] is HT-29 (colorectal carcinoma). The experiment in a line: In vitro cytotoxic activity (GI50), propidium iodide dye indicator. Particulars: read-out: In vitro Cytotoxic Activities GI50, HT-29.
Data set [2] concerns HT-29, SF268, MDA-MB-231 and PC-3. The experiment in a line: In vitro cytotoxic activity, four cell lines together (average / overall statement). Particulars: for exhibited in vitro anticancer activity at 30 μM: four cell lines; for GI50: read-out: In vitro Cytotoxic Activities GI50, Average.
Data set [3] relates to PC-3 (prostate adenocarcinoma). Description: In vitro cytotoxic activity (GI50), propidium iodide dye indicator. The format is cell-based. Particulars: PC-3, 96 hrs incubation; read-out: In vitro Cytotoxic Activities GI50, PC-3. An excerpt:
(§1) Procedure used for the tests is described below.

The test system of data set [4] is MDA-MB-231 (mammary gland adenocarcinoma). The data set is described as above. The format is cell-based. The note with it: MDA-MB-231, 96 hrs incubation, read-out: In vitro Cytotoxic Activities GI50, MDA-MB-231.
From the text: as §1

Another data set has as its system SF268 (CNS). The data set is described as above. The note with it: SF-268, 96 hrs incubation, read-out: In vitro Cytotoxic Activities GI50, SF-268. The class given is cell-based.
From the text: as §1

The nature of data set [5]: Conversion to Compound 1 by rat liver homogenate. The format is in vitro ADME, Sprague Dawley rats. The note with it: 37° C. On the procedure: The aim of this test was to determine if the phosphate prodrugs were cleaved by phosphatases present in the liver.
Rat liver (3 g from Sprague Dawley rats) was weighed into a centrifuge tube and 12 mL of Buffer A was added, representing a 1:4 tissue/buffer ratio, which were homogenized for at least 30 seconds at ambient temperature.
Stock solutions of test article, control and internal standards were prepared as shown in Table 8 by diluting the compound in the appropriate solvent.
Liver homogenate (180 μL) was transferred into Eppendorf™ tubes (polypropylene, size 1.8 mL). Tubes for Blank, 0 min, 30 min, 1 h, 2 h, 3 h, 4 h and 5 h for each concentration of compound to be tested. Blank tubes were prepared by adding 200 μL of homogenate per tube.
Immediately after vortexing, the 0 min samples (for calibration) were extracted with extraction Methods A and B (see below). The remaining tubes were incubated at 37° C. for the prescribed length of time.
The mixture was allowed to stand for 10 minutes at room temperature. It was then centrifuged at 13000 RPM for 5 minutes at 4° C. The supernatant was tested by LC-MS/MS (Method B).
A volume of 800 μL of acetonitrile containing IS 200 ng/mL (Stock F) was added to the homogenate and the mixture vortexed for 30 sec. The mixture was allowed to stand at room temperature for 10 minutes, and was centrifuged at 13000 RPM for 5 minutes at 4° C. The supernatant was tested by LC-MS/MS (Method A).
Both LC methods were accomplished using the same HPLC system (Agilent Technologies 1100 with Binary pump and autosampler, and an Agilent 1100 Autosampler needle wash to avoid contamination of the needle. Both MS/MS method were done using a MDS Sciex™ MS system under positive electrospray ionization.
Multiple Reaction Monitoring (MRM) was used as scan type in Method A MS/MS.
LC Method B (long method) was done using 20 μL of test solution on a Waters Symmetry™ C-18, 3.5μ (3.0×100 mm id) and a divert pump flow rate of 1.0 ml/min using the conditions described in Table 10.
Enhanced Product Ion (EPI) was used as scan type in Method B MS/MS.

Where [6] appears, read: average of HT-29, SF-268, PC-3, MDA-MB-231.

Like-named read-outs stand apart in the source and are kept apart here.

The AUC is concentration integrated over time. A high value points to more exposure. Broadly, the solubility is the concentration that dissolves in the medium under given conditions. For orientation: GI50 means the concentration giving 50% growth inhibition.

Procedure for in vivo: Each blood sample (approximately 0.5 mL) was collected into microtainer tubes containing anticoagulant K2EDTA. The samples were centrifuged at a temperature ranging from about 2 to about 8° C. for 10 minutes at 1500 g (RCF). A volume of 25 μL of 4% w/v L-aqueous acid was added to a volume of 225 μL of rat plasma in a clean tube, and the samples were mixed by inversion.
LOQ and LOD values were determined according to the concentration range used in the experiment, using a MDS Sciex API 2000™ Q-Trap™. Mean concentration values and standard deviation (SD) were calculated at each timepoints of the pharmacokinetic study (n=3 animals/timepoint).
Blood was collected, centrifuged and analyzed as above.

Compound `CC(C)=CCC/C(C)=C/CC/C(C)=C/CN1C(=O)c2cccc(O)c2Nc2c(O)cc(O)cc21` [Compound 1, 10-farnesyl4,6,8-trihydroxy-5,10-dihydrodibenzo[b,e][1,4]diazepin-11-one] yielded an exposure (AUC) in the data set “in vivo” of 70200 ng·h/mL.

In “physchem”, `CC(C)=CCC/C(C)=C/CC/C(C)=C/CN1C(=O)c2cccc(O)c2Nc2c(OP(=O)(O)O)cc(O)cc21.N.N` [Compound 21 (NH4^+)2, 4,8-dihydroxy-10-farnesyl-6-phosphonooxy-5,10-dihydro-dibenzo[b,e][1,4]diazepin-11-one diammonium salt] had a solubility of 5 mg/mL. Further, the GI50 in data set [1] (Homo sapiens, HT-29, 96 h) was more than 30 µM; in data set [2], more than 30 µM; in data set [3], more than 30 µM; in data set [4] (Homo sapiens), more than 30 µM; in the data set with SF268 (CNS) (Homo sapiens), more than 30 µM. Moreover, in data set [2], the “exhibited in vitro anticancer activity at 30 μM” value (“exhibited” for short) was “None”.

`CC(C)=CCCC(C)=CCCC(C)=CCN1C(=O)c2cccc(OP(=O)(O)OCc3ccccc3)c2Nc2c(OP(=O)(O)OCc3ccccc3)cc(OP(=O)(O)OCc3ccccc3)cc21.N.N.N` [Compound 9 (NH4^+)3, 10-farnesyl-4,6,8-tri(benzyloxyhydroxyphosphoryloxy)-5,10-dihydro-dibenzo[b,e][1,4]diazepin-11-one triammonium salt] registered a solubility in the data set “physchem” of more than 40 mg/mL. For the same compound, the “Concentration of Compound 9 (remaining prodrug) vs Time of Incubation” value is 1840 ng/mL in data set [5] (initial conc. 5 μg/mL in homogenate, 0 min); 2040 ng/mL in data set [5] (initial conc. 5 μg/mL in homogenate, 0.5 h); 2570 ng/mL in data set [5] (initial conc. 5 μg/mL in homogenate, 1 h); 856 ng/mL in data set [5] (initial conc. 5 μg/mL in homogenate, 2 h); 544 ng/mL in data set [5] (initial conc. 5 μg/mL in homogenate, 3 h); “<LOD” in data set [5] (initial conc. 5 μg/mL in homogenate, 4 h). Also, the “Concentration of Compound 9 (remaining prodrug) vs Time of Incubation” value in data set [5] (initial conc. 5 μg/mL in homogenate, 5 h) is “<LOD”; in data set [5] (initial conc. 20 μg/mL in homogenate, 0 min), 13300 ng/mL; in data set [5] (initial conc. 20 μg/mL in homogenate, 0.5 h), 14600 ng/mL; in data set [5] (initial conc. 20 μg/mL in homogenate, 1 h), 9030 ng/mL; in data set [5] (initial conc. 20 μg/mL in homogenate, 2 h) it was 2970 ng/mL; in data set [5] (initial conc. 20 μg/mL in homogenate, 3 h), 1530 ng/mL. Moreover, the “Concentration of Compound 9 (remaining prodrug) vs Time of Incubation” value in data set [5] (initial conc. 20 μg/mL in homogenate, 4 h) is given as 1080 ng/mL; in data set [5] (initial conc. 20 μg/mL in homogenate, 5 h), 948 ng/mL. The concentration for 50% growth inhibition (GI50) was more than 30 µM in data set [1] (Homo sapiens, HT-29, 96 h); more than 30 µM in data set [2]; more than 30 µM in data set [3]; more than 30 µM in data set [4] (Homo sapiens); more than 30 µM with SF268 (CNS) (Homo sapiens). Moreover, the “exhibited” value in data set [2] is “None”.

Regarding `CC(C)=CCC/C(C)=C/CC/C(C)=C/CN1C(=O)c2cccc(OP(=O)(OCc3ccccc3)OCc3ccccc3)c2Nc2c(OP(=O)(OCc3ccccc3)OCc3ccccc3)cc(OP(=O)(OCc3ccccc3)OCc3ccccc3)cc21` [Compound 2, 10-farnesyl-4,6,8-tri(bisbenzyloxyphosphoryloxy)-5,10-dihydro-dibenzo[b,e][1,4]diazepin-11-one], the GI50 was more than 30 µM in data set [1] (Homo sapiens, HT-29, 96 h); more than 30 µM in data set [2]; more than 30 µM in data set [3]; more than 30 µM in data set [4] (Homo sapiens); more than 30 µM with SF268 (CNS) (Homo sapiens). Moreover, in data set [2], the “exhibited” value is on record as “None”.

Take `CC(=O)Oc1cc(OC(C)=O)c2c(c1)N(C/C=C(\C)CC/C=C(\C)CCC=C(C)C)C(=O)c1cccc(OC(C)=O)c1N2` [A, reference compound]: the GI50 in data set [1] (HT-29, 96 hrs incubation) is 9.33 µM; in data set [2] (setting [6]) it was 3.82 µM; in data set [3], 1.2 µM; in data set [4], 2.79 µM; with SF268 (CNS), 1.95 µM.

For the compound `CC(=O)Oc1cc(OC(C)=O)c2c(c1)N(C/C=C(\C)CC/C=C(\C)CCC=C(C)C)C(=O)c1cccc(O)c1N2` [D, reference compound], the GI50 in data set [1] (HT-29, 96 hrs incubation) is 13 µM; in data set [2] (setting [6]), 4.48 µM; in data set [3] it was 1.35 µM; in data set [4], 1.55 µM; in the data set on SF268 (CNS) it was 2.02 µM.

Consider `CC(C)=CCC/C(C)=C/CC/C(C)=C/CN1C(=O)c2cccc(OP(=O)(O)O)c2Nc2c(OP(=O)(O)O)cc(OP(=O)(O)O)cc21` [Compound 16], for which the solubility in “physchem” was more than 40 mg/mL. In addition, the GI50 is more than 30 µM in data set [1] (Homo sapiens, HT-29, 96 h); more than 30 µM in data set [2]; more than 30 µM in data set [3]; more than 30 µM in data set [4] (Homo sapiens); more than 30 µM with SF268 (CNS) (Homo sapiens). Besides, the “exhibited” value in data set [2] is given as “None”.

Turning to `CC(=O)Oc1cccc2c1Nc1c(OC(C)=O)cc(O)cc1N(C/C=C(\C)CC/C=C(\C)CCC=C(C)C)C2=O` [B, reference compound], the 50% growth inhibitory concentration (GI50) in data set [1] (HT-29, 96 hrs incubation) was determined as 12.6 µM; in data set [2] (setting [6]), 4.6 µM; in data set [3], 1.44 µM; in data set [4], 2.48 µM; with SF268 (CNS) it was 1.88 µM.

Consider `CC(=O)Oc1cc(O)c2c(c1)N(C/C=C(\C)CC/C=C(\C)CCC=C(C)C)C(=O)c1cccc(OC(C)=O)c1N2` [C, reference compound], for which the GI50 in data set [1] (HT-29, 96 hrs incubation) worked out at 16 µM; in data set [2] (setting [6]), 8.72 µM; in data set [3], 5.35 µM; in data set [4] it was 7.72 µM; in the data set with SF268 (CNS), 5.79 µM.

The values above are taken from patent US7384935B2 (Thallion Pharmaceuticals, Inc., priority 2005, dated 2008).
